Test results published in article PMC3463238 (Toxicology letters, 2012).
Like-named read-outs stand apart in the source and are kept apart here. Marks after values point to notes of the source that are not given here.

Experiments:
in vitro [1] = conditions: human
in vitro [2] = conditions: human; remark: listed apart in the source
[3] = tested on: cellular proteins of wild-type cells; conditions: human, 24 h, 100 μM
[4] = tested on: cellular proteins of CYP2E1 cells; conditions: human, 24 h, 100 μM
[5] = tested on: CYP2E1 transgenic cells (h2E1); conditions: for Decrease in cell viability relative to vehicle group: 24 h, 100 μM
recombinant human CYP2E1 = recombinant human CYP2E1 (Homo sapiens, UniProt P05181); conditions: pH 7.4
[6] = Reactivity of styrene oxide and halogenated styrene oxides to cysteamine; format: physicochemical; conditions: oxide 1.0 μM, cysteamine 100 μM, phosphate buffer, 37 °C
[7] = Observed stability of the compound; format: physicochemical
[8] = Cellular GSH contents in CYP2E1 cells; conditions: human
[9] = tested on: cellular proteins of CYP2E1 cells; experiment: Cellular protein covalent binding of 14C-labeled styrenes in CYP2E1 cells; conditions: 14C-labeled compound 100 μM, 24 h
[10] = Cytotoxicity in CYP2E1 transgenic cells; conditions: human

recombinant human CYP2E1, sequence (P05181 whole entry): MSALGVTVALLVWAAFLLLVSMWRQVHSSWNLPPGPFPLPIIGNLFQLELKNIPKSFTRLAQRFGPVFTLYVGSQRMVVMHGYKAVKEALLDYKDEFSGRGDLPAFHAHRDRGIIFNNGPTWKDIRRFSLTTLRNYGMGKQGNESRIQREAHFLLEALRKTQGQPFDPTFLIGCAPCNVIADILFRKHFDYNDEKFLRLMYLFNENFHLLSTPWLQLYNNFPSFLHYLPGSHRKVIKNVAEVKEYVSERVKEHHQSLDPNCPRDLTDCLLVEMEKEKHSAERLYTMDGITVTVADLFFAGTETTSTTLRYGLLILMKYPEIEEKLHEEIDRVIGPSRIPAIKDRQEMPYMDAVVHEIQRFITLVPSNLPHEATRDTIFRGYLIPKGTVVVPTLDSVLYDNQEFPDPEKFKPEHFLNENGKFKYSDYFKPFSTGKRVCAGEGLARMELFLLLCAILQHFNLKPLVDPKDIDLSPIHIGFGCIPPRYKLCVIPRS

With `C=Cc1ccc(Br)cc1` [Br-ST, 4-bromostyrene] the viability at 24 h, 100 µM (in vitro [1]) was 39.6 ± 4.1%, the activity at 3 h, 100 µM (in vitro [2]) was 61 ± 6.5% and the “Fold lower radioactivity bound to proteins in wild-type cells than CYP2E1 cells” value [3] was 5 fold. The “Binding load (radioactivity bound to cellular proteins)” value [4] was 6.17 nmol/mg protein, the “Decrease in cell viability relative to vehicle group” value ([5]; human) was 39.6% and the “Bioactivation index (k × Vmax/Km)” value (recombinant human CYP2E1) was 31.9 ± 3.48 ^c.

With `c1ccc(C2CO2)cc1` (stereo not drawn) [styrene oxide] the “Rate constant for production of the cysteamine adducts” value (“Rate constant for production” below) [6] was 13.4 ± 1.88 min⁻¹.

With `C=Cc1ccc(F)cc1` [F-ST, 4-fluorostyrene] the viability at 24 h, 100 µM (in vitro [1]) was 78.8 ± 3.2%, the activity at 3 h, 100 µM (in vitro [2]) was 82.4 ± 2.2% and the “Binding load (radioactivity bound to cellular proteins)” value [4] was 2.27 nmol/mg protein. The “Toxicity to CYP2E1 cells compared with another compound” value [5] was “little difference in toxicity” and the “Bioactivation index (k × Vmax/Km)” value (recombinant human CYP2E1) was 10.4 ± 0.64 ^a.

In the case of `Clc1ccc(C2CO2)cc1` (stereo not drawn) [4-chlorostyrene oxide], the “Rate constant for production” value [6] is reported as 16.1 ± 2.08 min⁻¹.

For `C=Cc1ccc(I)cc1` [4-iodostyrene], the “Stability” value [7] was “unstableness” and the “Toxicity to CYP2E1 cells compared with another compound” value ([5]; human) was “more toxic than 4-bromostyrene”.

For `Fc1ccc(C2CO2)cc1` (stereo not drawn) [4-fluorostyrene oxide], the “Rate constant for production” value [6] was 15.7 ± 1.57 min⁻¹.

In the case of `C=Cc1ccccc1` [ST, Styrene], the activity at 3 h, 100 µM [8] is reported as 83.7 ± 2.1%, the “Binding load (radioactivity bound to cellular proteins)” value [9] is reported as 2.02 nmol/mg protein and the viability at 24 h, 100 µM [10] is reported as 80 ± 3%.

For `Brc1ccc(C2CO2)cc1` (stereo not drawn) [4-bromostyrene oxide], the “Rate constant for production” value [6] was 29.3 ± 3.19 min⁻¹.

For `C=Cc1ccc(Cl)cc1` [Cl-ST, 4-chlorostyrene], the viability at 24 h, 100 µM (in vitro [1]) was 57.7 ± 9.9%, the activity at 3 h, 100 µM (in vitro [2]) was 71.2 ± 5.8% and the “Decrease in cell viability relative to vehicle group” value ([5]; human) was 57.7%. The “Bioactivation index (k × Vmax/Km)” value (recombinant human CYP2E1) was 15.8 ± 2.03 ^b.
